# In ChEMBL document CHEMBL4138075, “Concise synthesis and antiproliferative activity evaluation of ellipticine quinone and its analogs” (Eur J Med Chem, 2017):
# Experiments:
# HCT-116 = experiment: Antiproliferative activity against human HCT116 cells measured after 48 hrs by MTT assay; format: functional, cell-based; conditions: HCT-116, 48 h
# HL-60 = experiment: Antiproliferative activity against human HL60 cells measured after 48 hrs by WST1 assay; format: functional, cell-based; conditions: HL-60, 48 h
Structure (SMILES),IC50 (HCT-116) [µM],IC50 (HL-60) [µM]
Cc1ccc2[nH]c3c(c2c1)C(=O)c1cnccc1C3=O,0.849,4.27
CC[C@@]1(O)C(=O)OCc2c1cc1n(c2=O)Cc2cc3ccccc3nc2-1 [CAMPTOTHECIN],0.159,0.019
O=C1c2ccncc2C(=O)c2c1[nH]c1cc(Cl)ccc21,4.07,> 10
O=C1c2ccncc2C(=O)c2c1[nH]c1ccc(F)cc21,1.13,4.5
O=C1c2ccncc2C(=O)c2c1[nH]c1cc([N+](=O)[O-])ccc21,1.25,4.43
O=C1c2ccncc2C(=O)c2c1[nH]c1ccc([N+](=O)[O-])cc21,0.187,1.35
COc1ccc2[nH]c3c(c2c1)C(=O)c1cnccc1C3=O,5.43,> 10
O=C1c2ccncc2C(=O)c2c1[nH]c1ccc(Cl)cc21,1.38,3.88
COc1ccc2c3c([nH]c2c1)C(=O)c1ccncc1C3=O,3.14,9.01
O=C1c2ccncc2C(=O)c2c1[nH]c1ccccc21,0.877,3.29
O=C1c2ccncc2C(=O)c2c1[nH]c1cc(F)ccc21,1.6,4.5
Cc1ccc2c3c([nH]c2c1)C(=O)c1ccncc1C3=O,5.79,> 10
O=C1c2ccncc2C(=O)c2c1[nH]c1ccc(C(F)(F)F)cc21,1.64,5.08
O=C1c2ccncc2C(=O)c2c1[nH]c1cc(C(F)(F)F)ccc21,4.62,> 10
COc1cc2[nH]c3c(c2cc1OC)C(=O)c1cnccc1C3=O,3.72,7.49
